Ends that are not written are not given here.
Experiments:
[1] = system: EDB-FN; test: siRNA-mediated EDB-FN knockdown confirmed by qRT-PCR; format: cell-based, human; details: U87MG cells; GAPDH internal control; control siRNA 1.00±0.08
Description: Cells were collected, and ribonucleic acid (RNA) was extracted with RiboEx using an RNA isolation kit (GeneAll, Seoul, Republic of Korea). Complementary DNA (cDNA) was synthesized by reverse transcription using a total of 1 μg of RNA from each sample. As a result, the following genes were estimated: EDB-FN gene (forward primer: 5′-[…]-3′; reverse primer: 5′-[…]-3′); glyceraldehyde 3-phosphate dehydrogenase) gene (forward primer: 5′-[…]-3′; reverse primer: 5′-[…]-3′. The polymerase chain reaction protocol was as follows: initial denaturation at 94° C. for 5 min; 30 repetitions of denaturation at 94° C. for 1 min, primer annealing at 55° C. for 1 min, and extension at 72° C. for 2 min; and final extension at 72° C. for 7 min 1 μg of cDNA was added to 4 μL of ultrapure water, 5 μL of SYBR Green real-time mixture (Takara, Tokyo, Japan) was added before performing a real-time polymerase chain reaction (Qiagen, Tokyo, Japan). The messenger RNA (mRNA) level of each gene was quantified using the 2^−ΔΔ^Ct method and normalized with the messenger RNA of glyceraldehyde 3-phosphate dehydrogenase.
EDB-FN-specific siRNA and scrambled control siRNA were purchased from Bioneer (Daejeon, Republic of Korea). The target sequence of EDB-FN siRNA used for RNA interference is as follows: sense; […], antisense; […]. […] Transfection efficacy was analyzed after 48 hours.

[2] = target: EDB-FN (Homo sapiens, UniProt P02751); details: read-out: affinity of binding to EDB-FN; cited from earlier work
Sequence of EDB-FN (Homo sapiens, UniProt P02751) (P02751 32-2477): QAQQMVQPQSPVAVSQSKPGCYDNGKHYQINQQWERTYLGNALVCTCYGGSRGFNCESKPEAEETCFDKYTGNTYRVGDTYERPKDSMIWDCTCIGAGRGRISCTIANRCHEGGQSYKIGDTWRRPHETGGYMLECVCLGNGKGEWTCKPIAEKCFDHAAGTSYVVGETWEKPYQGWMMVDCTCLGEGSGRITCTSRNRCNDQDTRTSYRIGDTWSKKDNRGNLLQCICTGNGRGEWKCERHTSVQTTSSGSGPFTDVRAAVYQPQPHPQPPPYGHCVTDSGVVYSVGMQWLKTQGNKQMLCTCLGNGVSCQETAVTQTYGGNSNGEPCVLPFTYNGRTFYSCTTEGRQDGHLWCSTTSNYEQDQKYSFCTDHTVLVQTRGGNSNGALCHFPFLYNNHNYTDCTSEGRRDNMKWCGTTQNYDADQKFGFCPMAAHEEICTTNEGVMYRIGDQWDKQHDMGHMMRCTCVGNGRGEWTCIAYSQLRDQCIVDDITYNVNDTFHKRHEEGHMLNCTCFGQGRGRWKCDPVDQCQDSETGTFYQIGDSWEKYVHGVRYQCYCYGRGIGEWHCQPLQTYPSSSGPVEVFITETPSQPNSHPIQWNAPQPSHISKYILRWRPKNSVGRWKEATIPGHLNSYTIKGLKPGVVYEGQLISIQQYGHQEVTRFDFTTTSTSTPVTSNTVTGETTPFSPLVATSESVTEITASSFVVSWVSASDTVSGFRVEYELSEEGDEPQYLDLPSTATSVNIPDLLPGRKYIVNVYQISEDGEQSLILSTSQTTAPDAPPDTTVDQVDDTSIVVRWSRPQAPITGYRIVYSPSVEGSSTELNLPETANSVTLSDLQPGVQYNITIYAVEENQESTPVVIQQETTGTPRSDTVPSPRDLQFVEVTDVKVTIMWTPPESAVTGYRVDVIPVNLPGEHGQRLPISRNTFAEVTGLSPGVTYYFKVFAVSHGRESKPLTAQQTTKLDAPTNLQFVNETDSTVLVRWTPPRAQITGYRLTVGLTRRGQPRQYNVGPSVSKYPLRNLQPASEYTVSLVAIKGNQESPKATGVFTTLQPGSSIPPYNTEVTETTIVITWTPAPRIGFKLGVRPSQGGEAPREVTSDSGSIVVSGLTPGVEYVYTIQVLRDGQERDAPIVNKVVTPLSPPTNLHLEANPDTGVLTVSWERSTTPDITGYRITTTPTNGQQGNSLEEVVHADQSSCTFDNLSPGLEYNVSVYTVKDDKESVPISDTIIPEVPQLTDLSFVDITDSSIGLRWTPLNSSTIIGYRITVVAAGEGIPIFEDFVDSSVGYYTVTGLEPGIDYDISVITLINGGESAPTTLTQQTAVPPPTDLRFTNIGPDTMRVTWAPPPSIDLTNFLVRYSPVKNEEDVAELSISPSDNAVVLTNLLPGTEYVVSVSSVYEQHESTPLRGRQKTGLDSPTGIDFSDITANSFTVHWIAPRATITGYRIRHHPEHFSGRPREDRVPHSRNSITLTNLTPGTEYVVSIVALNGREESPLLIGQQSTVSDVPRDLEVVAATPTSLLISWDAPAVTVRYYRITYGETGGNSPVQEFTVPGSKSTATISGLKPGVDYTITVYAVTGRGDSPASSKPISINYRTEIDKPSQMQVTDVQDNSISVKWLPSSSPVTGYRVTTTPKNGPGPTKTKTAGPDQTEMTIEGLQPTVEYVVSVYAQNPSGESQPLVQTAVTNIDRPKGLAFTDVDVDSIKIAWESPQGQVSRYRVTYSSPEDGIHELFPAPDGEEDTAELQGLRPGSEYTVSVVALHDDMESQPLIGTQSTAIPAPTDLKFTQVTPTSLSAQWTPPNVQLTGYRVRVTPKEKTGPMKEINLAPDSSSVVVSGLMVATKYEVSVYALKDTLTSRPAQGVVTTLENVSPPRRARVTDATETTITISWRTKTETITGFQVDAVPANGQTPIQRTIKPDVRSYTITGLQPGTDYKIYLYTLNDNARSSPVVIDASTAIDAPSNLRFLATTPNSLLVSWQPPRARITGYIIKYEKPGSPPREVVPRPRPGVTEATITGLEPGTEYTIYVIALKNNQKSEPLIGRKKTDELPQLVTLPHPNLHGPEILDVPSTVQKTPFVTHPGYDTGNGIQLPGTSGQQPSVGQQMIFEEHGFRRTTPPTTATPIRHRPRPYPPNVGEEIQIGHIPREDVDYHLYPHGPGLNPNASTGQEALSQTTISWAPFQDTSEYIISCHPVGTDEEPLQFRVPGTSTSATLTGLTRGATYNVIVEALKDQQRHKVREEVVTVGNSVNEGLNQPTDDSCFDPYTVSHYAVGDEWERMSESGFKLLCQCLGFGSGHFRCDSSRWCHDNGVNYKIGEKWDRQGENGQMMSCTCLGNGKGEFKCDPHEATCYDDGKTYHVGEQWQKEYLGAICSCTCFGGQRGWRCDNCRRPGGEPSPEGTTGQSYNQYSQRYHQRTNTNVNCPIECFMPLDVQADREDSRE

Substance | EDB-FN expression (qRT-PCR) [1] | Kd [2]
EDB-FN siRNA: EDB-FN-specific siRNA; sense ACAGUCCCAGAUCAUGGAG, antisense CUCCAUGAUCUGGGACUGU (chemistry not given here) | 0.45±0.01 | 
N′-CSSPIQGSWTWENGK(C)WTWGIIRLEQ-C′ (CSSPIQGSWTWENGK(Cys)WTWGIIRLEQ; listed as Homo sapiens) [APTEDB, EDB-FN-specific aptamer-like peptide (aptide)] |  | < 100 nM
